Test results taken from paper PMC12314576, “The Actin‐Binding Prolyl‐Isomerase Par17 Sustains Its Substrate Selectivity by Interdomain Allostery” (Proteins, 2025).
Starred links: 1 amine or outer side, 2 acyl side, 3 side chain; linkers in the order of their positions; H or OH if unused. Residues, ends and D or L forms follow the SMILES beside them. *: point of attachment. pNA = O=[N+]([O-])c1ccc(N*)cc1; Suc = O=C(CCC(=O)[*:2])[*:1]

What was measured:
Par17 [1] = target: T1, Par17 (Homo sapiens, UniProt Q9Y237); experiment: NMR titration of substrate peptides to 15N-labeled full-length Par17; assay type: binding; conditions: 300 μM Par17, KPi pH 6.7, 20°C
T1 construct: full‐length Par17 and the N‐terminus of Par17; GST-His6 (PreScission site) (N, cleaved yes); Gly-Pro remnant of the PreScission site (Gly stands at position 1 in place of Met1); made in house; host or cells: E. coli BL21 (DE3) T1r
T1 sequence (Q9Y237 1-156 isoform Q9Y237-2): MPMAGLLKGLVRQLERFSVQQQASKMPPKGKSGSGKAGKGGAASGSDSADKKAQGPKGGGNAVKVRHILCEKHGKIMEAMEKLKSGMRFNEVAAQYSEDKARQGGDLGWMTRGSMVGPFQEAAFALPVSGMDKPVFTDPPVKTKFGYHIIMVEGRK
Protocol: The amide signals were assigned and combined chemical shift changes between the signals of free and substrate‐bound isomers were calculated.
For NMR measurements, purified and concentrated proteins in salt‐free buffers were mixed with 10% D2O and 1 μL DSS standard. Spectra were measured on an ultra shield 700‐NMR (Bruker, Billerica, US) with a triple resonance cryoprobe (700 MHz). For recording and processing of data, the software Topspin 3.5 was used. Analysis of spectra was carried out using Cara analysis software 2.3.1 (Rochus L.J. Keller) and/or CcpNmr Analysis 2.3.1 (Department of Molecular and Cell Biology, University of Leicester, UK).
Titration of substrate peptides to ^ 15 N‐labeled full‐length Par17 and the N‐terminus of Par17: The following substrate peptides were diluted in salt‐free 50 mM KPi buffer pH 6.7 to a concentration of 15 mM (Suc: Succinyl, pNA: para‐Nitroanilin):
They were added stepwise to 200 μL of the labeled parvulins (300 μM in 50 mM KPi buffer pH 6.7). Spectra were recorded with the pulse program Best‐TROSY at 20°C. Combined chemical shifts were calculated as described. Microscopic dissociation constant K D was fitted with the following equation (assuming a 1:1 binding model): (4) ∆δ=∆δmax·P+x+KD−P+x+KD^2−4·x·P/2·P
where ∆δmax is the amplitude, P is the protein concentration, X is the concentration of the peptide.
Differences in chemical shift changes could be measured up to 0.001 ppm (error in peak picking). Changes were interpreted as significant if Δ > 0.004 ppm and when appearing consecutively in a linear sequence element.
The microscopic K D describes the binding affinity of the ligand to a single side of an amino acid.

Par14 (Par17Δ1-25) = target: T2, Par14 (Par17Δ1-25) (Homo sapiens, UniProt Q9Y237); experiment: Protease-coupled isomerase assay (PPIase assay) with Par14; assay type: biochemical; conditions: α-chymotrypsin 35 μM, PBS pH 6.8, 10°C, substrate 75 μM, PPIase 2 μM, absorbance 390 nm; mean ± SD
T2 construct: Comparison of spectra of full‐length parvulin proteins and PPIase domain; GST-His6 (PreScission site) (N, cleaved yes); made in house; host or cells: E. coli BL21 (DE3) T1r
T2 sequence (Q9Y237 whole entry, stated change not applied, the tested form may be a part): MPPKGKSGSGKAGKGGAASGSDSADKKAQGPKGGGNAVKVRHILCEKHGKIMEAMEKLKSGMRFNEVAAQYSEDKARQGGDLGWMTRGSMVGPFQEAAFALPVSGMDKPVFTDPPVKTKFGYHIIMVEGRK
Protocol: (§1) To determine the catalytic efficiency and substrate specificity of Par14 and Par17, we performed a protease‐coupled assay. In this assay, the trans form of a para‐nitroaniline (pNA) tagged model substrate is cleaved by chymotrypsin, and the resulting change in absorption at 390 nm due to free pNA is measured. When the model substrate is added to the protease‐containing buffer, all trans‐Xaa‐Pro isomers are immediately cleaved by chymotrypsin. Therefore, the extent of the first signal burst observed in the absorption spectrum correlates with the amount of trans isomers of the model substrate formed during the experimental dead time. The remaining cis‐Xaa substrates now start to isomerize by thermal (in the absence of PPIase) or catalytic reaction (in the presence of PPIase). The newly formed trans‐Xaa substrates are immediately cleaved, and isomerization can thus be monitored over time (Figure 2). Eighteen different substrate peptides with varying amino acids at the Xaa position (Suc‐Ala‐Xaa‐Pro‐Phe‐pNa) were measured to determine the isomerase activity and substrate selectivity of Par14 (Par17Δ1–25), Par17, and the catalytic domain (Par17Δ1–60) (Table S1). The catalytic efficiency is obtained from the observed isomerization curves by calculating the difference between the rate constant in the presence of enzyme and the rate constant obtained from thermal isomerization.
(§2) We determined the isomerase activity using the PPIase assay described by. The lyophilized peptides were dissolved in an adequate volume of 0.5 mM‐LiCl/TFE buffer to obtain a 15 mM stock solution. To achieve a stable cis/trans ratio the mixture was incubated overnight at 4°C. The next day a stock solution of 350 μM α‐chymotrypsin in PBS was incubated on ice for at least 20 min. For measurements without PPIase PBS buffer (pH 6.8) was mixed with α‐chymotrypsin to a final concentration of 35 μM in 1 mL. A baseline was recorded for 5 min (Cary 100Bio UV/Vis spectrophotometer, Varian/Agilent, Santa Clara, US, λ: 390 nm, bandwidth: 1.0 nm, average time between measurements: 0.5 s, temperature: 10°C). After 5 min the substrate peptide was added to a final concentration of 75 μM in 1 mL [59]. The solution was mixed by inverting the cuvette three times and the reaction was recorded for 15 min. Measurements in the presence of PPIase were performed in the same way, except that before the baseline measurement, the appropriate isomerase was added in a final concentration of 2 μM in 1 mL in addition to PBS and α‐chymotrypsin.
(§3) For the data analysis, a mean value of the baseline was subtracted (average of the first 200 data points). The measured values were normalized according to the respective maximum of the measurement. To determine the rate constant, the program graph pad was used, and non‐linear curve fitting was applied for each measurement (exponential, one‐phase association). (1) Y=Y0+Plateau−Y0∙1−e^−K∙x
(§4) where x is the time (min), Y is the absorbance, Y 0 is the absorbance when x = 0, Plateau is the Y value at infinite times, K is the rate constant (min^−1).
(§5) The K cat/K M value was calculated according to Equation (2): (2) kcat/KM=kobs−ktherm/PPIase where k cat/K M is the catalytic efficiency (M^−1 s^−1), k obs, rate constant of the observed reaction (s^−1), k therm is the rate constant of the thermic reaction (s^−1), and [PPIase] is the concentration of PPIase used in the assay (M).
(§6) The obtained data are fitted to Equation (2) using a pseudo first‐order assumption. This is the case, if k obs values behave linearly with rising PPIase concentrations.

Par17 [2] = target: T1, Par17; experiment: Protease-coupled isomerase assay (PPIase assay) with Par17; assay type: biochemical; conditions: for k = kobserved - kthermic, Par17: α-chymotrypsin 35 μM, PBS pH 6.8, 10°C, substrate 75 μM, PPIase 2 μM, absorbance 390 nm, mean ± SD
Protocol: as §1, §2, §3, §4, §5, §6

[3] = target: T3, PPIase domain (Par17Δ1-60) (Homo sapiens, UniProt Q9Y237); experiment: Protease-coupled isomerase assay (PPIase assay) with the catalytic domain; assay type: biochemical; conditions: α-chymotrypsin 35 μM, PBS pH 6.8, 10°C, substrate 75 μM, PPIase 2 μM, absorbance 390 nm; mean ± SD
T3 construct: GST-His6 (PreScission site) (N, cleaved yes); made in house; host or cells: E. coli BL21 (DE3) T1r
T3 sequence (Q9Y237 36-131, stated change not applied): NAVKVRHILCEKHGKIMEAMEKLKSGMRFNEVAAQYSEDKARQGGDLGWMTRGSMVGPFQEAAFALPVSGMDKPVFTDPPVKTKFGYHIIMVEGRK
Protocol: as §1, §2, §3, §4, §5, §6

C[C@H](NC(=O)CCC(=O)O)C(=O)N[C@@H](CCCNC(=N)N)C(=O)N1CCC[C@H]1C(=O)N[C@@H](Cc1ccccc1)C(=O)Nc1ccc([N+](=O)[O-])cc1 [Arg, Suc‐Ala‐Arg‐Pro‐Phe‐pNa] (Suc-ARPF-pNA)
Combined chemical shift perturbation of full length Par17, 115M (Par17 [1]; peptide 0,2 mM): 0,0060079 ppm
Combined chemical shift perturbation of full length Par17, 119F (Par17 [1]; peptide 0,2 mM): 0,00418543 ppm
Combined chemical shift perturbation of full length Par17, 115M (Par17 [1]; peptide 0,4 mM): 0,00801333 ppm
Combined chemical shift perturbation of full length Par17, 116V (Par17 [1]; peptide 0,4 mM): 0,06817833 ppm
Combined chemical shift perturbation of full length Par17, 119F (Par17 [1]; peptide 0,4 mM): 0,00841748 ppm
Combined chemical shift perturbation of full length Par17, 115M (Par17 [1]; peptide 1 mM): 0,0143348 ppm
Combined chemical shift perturbation of full length Par17, 116V (Par17 [1]; peptide 1 mM): 0,13037308 ppm
Combined chemical shift perturbation of full length Par17, 119F (Par17 [1]; peptide 1 mM): 0,01835824 ppm
Combined chemical shift perturbation of full length Par17, 115M (Par17 [1]; peptide 2 mM): 0,02655282 ppm
Combined chemical shift perturbation of full length Par17, 116V (Par17 [1]; peptide 2 mM): 0,18551846 ppm
Combined chemical shift perturbation of full length Par17, 119F (Par17 [1]; peptide 2 mM): 0,03376697 ppm
Combined chemical shift perturbation of full length Par17, 115M (Par17 [1]; peptide 3 mM): 0,03809928 ppm
Combined chemical shift perturbation of full length Par17, 116V (Par17 [1]; peptide 3 mM): 0,23776807 ppm
Combined chemical shift perturbation of full length Par17, 119F (Par17 [1]; peptide 3 mM): 0,04577626 ppm
Combined chemical shift perturbation of full length Par17, 115M (Par17 [1]; peptide 4 mM): 0,0454705 ppm
Combined chemical shift perturbation of full length Par17, 119F (Par17 [1]; peptide 4 mM): 0,05474353 ppm
Combined chemical shift perturbation of full length Par17, 115M (Par17 [1]; peptide 5 mM): 0,0546769 ppm
Combined chemical shift perturbation of full length Par17, 119F (Par17 [1]; peptide 5 mM): 0,06351885 ppm
k = kobserved - kthermic, Par14 (Par17Δ1-25) (Par14 (Par17Δ1-25)): 0.582 ± 0.094 min⁻¹
k cat/K M of Par17, times higher than for Leu‐Pro, Gln‐Pro or His‐Pro peptides (Par17 [2]; ratio of k cat/K M values): approximately 10 times
k = kobserved - kthermic, Par17 (Par17 [2]): 0.470 ± 0.037 min⁻¹
k = kobserved - kthermic, PPIase domain (Par17Δ1-60) [3]: 0.683 ± 0.064 min⁻¹

C[C@H](NC(=O)CCC(=O)O)C(=O)N[C@@H](CCC(=O)O)C(=O)N1CCC[C@H]1C(=O)N[C@@H](Cc1ccccc1)C(=O)Nc1ccc([N+](=O)[O-])cc1 [Glu, Suc–Ala–Glu–Pro–Phe–pNa] (Suc-AEPF-pNA)
Combined chemical shift perturbation of full length Par17, 113G (Par17 [1]; peptide 0,2 mM): 0,02117 ppm
Combined chemical shift perturbation of full length Par17, 115M (Par17 [1]; peptide 0,2 mM): 0,01409 ppm
Combined chemical shift perturbation of full length Par17, 116V (Par17 [1]; peptide 0,2 mM): 0,03056 ppm
Combined chemical shift perturbation of full length Par17, 119F (Par17 [1]; peptide 0,2 mM): 0,02147 ppm
Combined chemical shift perturbation of full length Par17, 113G (Par17 [1]; peptide 1 mM): 0,08535 ppm
Combined chemical shift perturbation of full length Par17, 115M (Par17 [1]; peptide 1 mM): 0,06465 ppm
Combined chemical shift perturbation of full length Par17, 116V (Par17 [1]; peptide 1 mM): 0,12599 ppm
Combined chemical shift perturbation of full length Par17, 119F (Par17 [1]; peptide 1 mM): 0,0896 ppm
Combined chemical shift perturbation of full length Par17, 113G (Par17 [1]; peptide 2 mM): 0,14414 ppm
Combined chemical shift perturbation of full length Par17, 115M (Par17 [1]; peptide 2 mM): 0,10754 ppm
Combined chemical shift perturbation of full length Par17, 116V (Par17 [1]; peptide 2 mM): 0,21191 ppm
Combined chemical shift perturbation of full length Par17, 119F (Par17 [1]; peptide 2 mM): 0,14351 ppm
Combined chemical shift perturbation of full length Par17, 113G (Par17 [1]; peptide 3 mM): 0,17998 ppm
Combined chemical shift perturbation of full length Par17, 115M (Par17 [1]; peptide 3 mM): 0,13595 ppm
Combined chemical shift perturbation of full length Par17, 116V (Par17 [1]; peptide 3 mM): 0,27245 ppm
Combined chemical shift perturbation of full length Par17, 119F (Par17 [1]; peptide 3 mM): 0,18213 ppm
Combined chemical shift perturbation of full length Par17, 113G (Par17 [1]; peptide 4 mM): 0,21636 ppm
Combined chemical shift perturbation of full length Par17, 115M (Par17 [1]; peptide 4 mM): 0,16135 ppm
Combined chemical shift perturbation of full length Par17, 116V (Par17 [1]; peptide 4 mM): 0,32999 ppm
Combined chemical shift perturbation of full length Par17, 119F (Par17 [1]; peptide 4 mM): 0,22445 ppm
k = kobserved - kthermic, Par14 (Par17Δ1-25) (Par14 (Par17Δ1-25)): 0.267 ± 0.011 min⁻¹
k = kobserved - kthermic, Par17 (Par17 [2]): <0.01 ± 0.029 min⁻¹
k = kobserved - kthermic, PPIase domain (Par17Δ1-60) [3]: 0.114 ± 0.074 min⁻¹
